Key:
Type in all cases: in vivo
[1] = test system: bed bugs of the species Cimex lectularius; assay: whole plant or invertebrate; settings: for mortality at 100 mg/m2: Cimex lectularius, read-out: activity (mortality in %)
Procedure: Cimex Test (CIMXLE Surface Treatment)
To produce a suitable preparation of the active compound, the active compound is dissolved in acetone (2 mg/ml). The active compound preparation is pipetted onto a glazed tile and, after drying, adult bed bugs of the species Cimex lectularius are placed onto the treated tile. The exposition time is 30 minutes.
Two hours after contact to the treated surface, the knock-down proportion of the test animals in % is determined
24 hours after contact to the treated surface, the mortality in % is determined. Here, 100% means that all bed bugs have been killed; 0% means that none of the bed bugs have been killed.

[2] = test system: Anopheles gambiae (homocygus kdr); assay: Anopheles test (ANPHGB surface treatment); settings: for knock-down activity: 100 mg/m^2, two hours after contact, exposition 30 minutes; for mortality at 100 mg/m2: Anopheles gambiae, read-out: activity (mortality in %); for Kill rate in % after 24 hours: active compound concentration 1.6 g/ha
Method in brief: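 Compound dissolved in acetone at 2 mg/ml, pipetted onto glazed tile and dried; adult kdr-homozygous mosquitoes exposed on the tile for 30 min. Knock-down (%) read 2 h and mortality (%) 24 h after contact.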

[3] = test system: green peach aphid (Myzus persicae); assay: Myzus test (MYZUPE spray treatment); settings: 500 g/ha, spray, after 6 days; for pest or weed control at 500 g/ha: Myzus persicae, 144 h, read-out: activity (aphids killed)
Method in brief: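 Chinese cabbage leaf discs infested with all aphid stages were sprayed with compound in acetone/DMF with emulsifier, diluted in emulsifier-containing water. Mortality in % assessed after 6 days (100% = all aphids killed).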

Aedes aegypti = assay: Aedes test (AEDSAE surface treatment); settings: for knock-down activity: 100 mg/m^2, two hours after contact, exposition 30 minutes; for mortality at 100 mg/m2: Aedes aegypti, read-out: activity (mortality in %); for Kill rate in % after 24 h: active compound concentration 1.6 g/ha
Method in brief: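 Compound dissolved in acetone (2 mg/ml) and dried onto a glazed tile; adult mosquitoes exposed for 30 minutes. Knock-down % scored at 2 hours and mortality % at 24 hours after contact (100% = all killed).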

[4] = test system: Boophilus microplus strain Parkhurst, SP-resistant; assay: Boophilus microplus test (DIP); settings: 100 ppm, after 7 days
Procedure: Boophilus microplus Test (DIP) Test Animals: Adult Fat Females of the Boophilus microplus Strain Parkhurst—SP-Resistant) Solvent: Dimethyl Sulphoxide
10 mg of active compound are dissolved in 0.5 ml of dimethyl sulphoxide. To produce a suitable formulation, the active compound solution is diluted with water to the particular desired concentration.
This active compound preparation is pipetted into tubes. 8-10 ticks are transferred into a further tube provided with holes. The tube is dipped into the active compound preparation, with all the ticks being wetted completely. After the liquid has run off, the ticks are transferred to filter discs in plastic dishes and kept in a climatized room. After 7 days, the activity is checked for deposition of fertile eggs. Eggs whose fertility is not visible from the outside are kept in glass tubes in a climatized cupboard until the larvae have hatched. An activity of 100% means that no tick has laid fertile eggs.

[5] = test system: brown dog ticks (Rhipicephalus sanguineus, fully sensitive laboratory strain); assay: Contact test against ticks in vitro (RHIPSA contact); settings: active compound concentration 4 g/ha
Procedure: Contact Test Against Ticks In Vitro (RHIPSA Contact)
An amount of 0.9 mg of active compound is weighed out, and 1 ml of acetone is added.
Of this acetone solution, either 250 μl are transferred directly into roll-necked test tubes or an aliquot is diluted with 4 parts of acetone 1:5. For its part, 250 μl of this dilution are pipetted into roll-necked test tubes, or the dilution is diluted further, etc., until the desired number of dilution steps is reached.
The roll-necked test tubes containing the solution of the active compound in acetone are immediately coated in a fume cupboard by 2 h of swing rotation at 30 rpm. After evaporation of the solvent, the active compound contained in the acetone gives, at the highest concentration tested, an active compound content of 500 g/ha (or […]) on the surface of the test tube.
5-10 Adult brown dog ticks (Rhipicephalus sanguineus, fully sensitive laboratory strain) are transferred into the test tubes prepared in this manner, and the test tubes are closed with a plastic roll-necked lid provided with fine holes.
The test tubes are stored vertically at room temperature and humidity for 24 or 48 h in the dark. After 24 and 48 h, the activity of the active compound applied is determined by comparison with an acetone-treated control. […]

Cc1ccc(N=C2C(=CSc3ccc(F)cc3)CCc3ccccc32)cc1 [Example 1-9]
knock-down activity ([1]; 100 mg/m^2, two hours after contact, exposition 30 minutes): 80% | mortality at 100 mg/m2 [1]: 100% | knock-down activity [2]: 100% | mortality at 100 mg/m2 [2]: 100% | Kill rate in % after 24 hours [2]: 100% | pest or weed control at 500 g/ha [3]: 100% | knock-down activity (Aedes aegypti): 100% | mortality at 100 mg/m2 (Aedes aegypti): 100% | Kill rate in % after 24 h (Aedes aegypti): 75%

Cc1ccc(N=C2C(=CSc3ccc(F)cc3)CCc3cc(F)ccc32)cc1 [Example 1-16]
mortality at 100 mg/m2 [1]: 90% | activity (100% = no tick has laid fertile eggs) [4]: 100% | knock-down activity [2]: 100% | mortality at 100 mg/m2 [2]: 100% | Kill rate in % after 24 hours [2]: 80% | pest or weed control at 500 g/ha [3]: 100% | knock-down activity (Aedes aegypti): 100% | mortality at 100 mg/m2 (Aedes aegypti): 100% | Kill rate in % after 24 h (Aedes aegypti): 90%

Cc1ccc(N=C2C(=CSc3ccc(C)cc3)CCc3ccccc32)cc1 [Example 1-28]
activity (100% = no tick has laid fertile eggs) [4]: 100% | knock-down activity [2]: 100% | activity (aphids killed) [3]: 90% | knock-down activity (Aedes aegypti): 80%

Cc1ccc(N=C2C(=CSc3ccc(F)cc3)CSc3ccccc32)cc1 [Example 1-35]
Kill rate in % after 2 days [5]: 100% | knock-down activity [2]: 100% | mortality at 100 mg/m2 [2]: 100% | Kill rate in % after 24 hours [2]: 100% | pest or weed control at 500 g/ha [3]: 100% | knock-down activity (Aedes aegypti): 90% | mortality at 100 mg/m2 (Aedes aegypti): 100% | Kill rate in % after 24 h (Aedes aegypti): 100%

Cc1ccc(N=C2C(=CSc3ccc(F)cc3)C(C)c3ccccc32)cc1 (stereo not drawn) [Example 1-57]
knock-down activity [2]: 80% | mortality at 100 mg/m2 [2]: 100% | Kill rate in % after 24 hours [2]: 100% | pest or weed control at 500 g/ha [3]: 100% | knock-down activity (Aedes aegypti): 100% | mortality at 100 mg/m2 (Aedes aegypti): 100%

Source: patent publication US9055743B2, “Alpha, beta-unsaturated imines” (BAYER INTELLECTUAL PROPERTY GMBH, priority 2010, dated 2015)
